Measured values taken from publication PMC5979531, “Structural Requirements of Alkylglyceryl-L-Ascorbic Acid Derivatives for Melanogenesis Inhibitory Activity” (International Journal of Molecular Sciences, 2018).

What was measured:
[1] = system: B16 melanoma 4A5 cells; experiment: Theophylline-stimulated melanogenesis inhibition (melanin content); assay type: cell-based, murine; conditions: for IC50: theophylline (1 mM)-stimulated B16 melanoma 4A5 cells
Protocol: (§1) The effects on theophylline-stimulated melanogenesis and viability of B16 melanoma 4A5 cells were examined according to previously described protocols. Briefly, murine B16 melanoma 4A5 cells were seeded into 48-well plates in DMEM. After 24 h of culture, a test compound and theophylline (1 mM) were added and incubated for 72 h. The melanin content and cell viability were then measured. IC50 values were determined graphically.
Inhibition (%) was calculated using the following formula, where A and B indicate the optical density of the vehicle- and test compound-treated groups, respectively, and C indicates cell viability (%) (see below): Inhibition (%) = [(A − B)/A]/(C/100) × 100.

[2] = Cell viability of B16 melanoma 4A5 cells; assay type: cell-based, murine; conditions: mouse, B16 4A5 cells
Protocol: as §1

[3] = system: TRP-2 mRNA; experiment: Expression of TRP-2 mRNA (qRT-PCR); assay type: cell-based, murine; conditions: B16 4A5 cells, theophylline 1 mM, 72 h
Protocol: (§2) The expression of tyrosinase, TRP-1, and TRP-2 mRNA was assessed according to previously reported methods. Briefly, murine B16 melanoma 4A5 cells were seeded into 96-well plates in DMEM. After 24 h of culture, a test compound and theophylline (1 mM) were added and incubated for 72 h. Then, the amount of each mRNA was quantified by quantitative reverse transcription PCR.

[4] = Stability in aqueous solution at elevated temperature (HPLC residual ratio); assay type: physicochemical; conditions: 20 mg/mL at 125 °C in the dark, after 3 h
Protocol: To determine stability, the samples were stored at 125 °C, and the residual ratio was calculated by measuring the remaining compound by HPLC. HPLC mobile phase conditions were as follows: AsA was described previously, 6 and 20 were 40% methanol containing 0.1% formic acid at flow rate of 0.2 mL/min [52, 53].

[5] = system: tyrosinase protein; experiment: Expression of tyrosinase protein (western blotting); assay type: cell-based, murine; conditions: B16 4A5 cells, theophylline 1 mM, 72 h
Protocol: The expression of tyrosinase protein was assessed according to a previously reported method. Briefly, murine B16 melanoma 4A5 cells were seeded into 6-well plates in DMEM. After 24 h of culture, a test compound and theophylline (1 mM) were added and incubated for 72 h. The expression of tyrosinase protein then was measured by western blotting.

[6] = system: tyrosinase from mushroom; experiment: Mushroom tyrosinase activity; assay type: biochemical
Protocol: Tyrosinase activities using L-tyrosine or L-DOPA as a substrate were determined according to the protocols described previously. Briefly, samples, L-tyrosine (2.5 mM, or L-DOPA, 3.0 mM), mushroom tyrosinase (46 units/mL), and phosphate buffer were mixed in a 96-well plate and incubated at 25 °C. (L-tyrosine; 30 min, L-DOPA; 5 min). The absorbance was then measured at 492 nm.

[7] = system: TRP-1 mRNA; experiment: Expression of TRP-1 mRNA (qRT-PCR); assay type: cell-based, murine; conditions: B16 4A5 cells, theophylline 1 mM, 72 h
Protocol: as §2

[8] = target: T1, mammalian tyrosinase (Mus musculus, UniProt P11344); experiment: Mammalian tyrosinase activity (B16 cell lysate, L-DOPA); assay type: biochemical, murine; conditions: L-DOPA as substrate
T1 construct: the cells were solubilized using 0.1% Triton X-100; endogenous in cells; host or cells: B16 melanoma cells (lysate, after 72 h of 1 mM theophylline)
T1 sequence (P11344 19-533): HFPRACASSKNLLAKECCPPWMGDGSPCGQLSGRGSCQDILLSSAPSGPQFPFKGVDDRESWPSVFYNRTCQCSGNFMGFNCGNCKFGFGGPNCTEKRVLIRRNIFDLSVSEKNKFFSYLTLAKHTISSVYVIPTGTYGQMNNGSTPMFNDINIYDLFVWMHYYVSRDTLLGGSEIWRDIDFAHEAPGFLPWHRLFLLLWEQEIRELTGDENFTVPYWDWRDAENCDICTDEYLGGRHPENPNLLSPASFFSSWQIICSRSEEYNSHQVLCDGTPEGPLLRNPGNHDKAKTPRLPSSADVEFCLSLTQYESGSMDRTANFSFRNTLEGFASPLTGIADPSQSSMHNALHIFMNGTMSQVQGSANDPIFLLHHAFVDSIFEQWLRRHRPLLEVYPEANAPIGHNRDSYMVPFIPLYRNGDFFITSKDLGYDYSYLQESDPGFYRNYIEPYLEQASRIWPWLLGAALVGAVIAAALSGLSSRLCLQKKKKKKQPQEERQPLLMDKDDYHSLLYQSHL
Protocol: Tyrosinase activity using L-DOPA as a substrate was determined according to protocols described previously. Briefly, B16 cells were seeded into 6-well plates in DMEM. After preculture with theophylline (1 mM) for 72 h, the cells were solubilized using 0.1% Triton X-100. Fifty microliters of each lysate and sample was then mixed with 100 µL 2 mM L-DOPA. After the mixtures were incubated for 30 min at 37 °C, the absorbance of each solution at 492 nm was measured.

[9] = system: tyrosinase activity in B16 melanoma 4A5 cells; experiment: Tyrosinase activity in cultured B16 cells; assay type: cell-based, murine; conditions: B16 4A5 cells, L-DOPA as substrate
Protocol: Tyrosinase activity in cultured cells was determined according to protocols described previously with modifications. Briefly, B16 melanoma 4A5 cells (4 × 10^3 cells/100 µL/well) were seeded into 96-well plates in DMEM. After pre-culture with sample and theophylline (1 mM) for 72 h, the cells were solubilized using 0.1% Triton X-100, and then each lysate was mixed with 50 μL 2 mM L-DOPA. After the mixtures were incubated for 1 h at 37 °C, the absorbance of the solution at 492 nm was measured using the microplate reader.

[10] = system: tyrosinase mRNA; experiment: Expression of tyrosinase mRNA (qRT-PCR); assay type: cell-based, murine; conditions: B16 4A5 cells, theophylline 1 mM, 72 h
Protocol: as §2

[11] = Mus musculus, theophylline-stimulated B16 4A5 cells, 72 h

Compound	inhibition at 3 µM [1, 11]	inhibition at 10 µM [1, 11]	inhibition at 30 µM [1, 11]	inhibition at 100 µM [1, 11]	IC50 ([1]; Mus musculus, 72 h)	viability at 72 h, 3 µM [2]	viability at 72 h, 10 µM [2]	viability at 72 h, 30 µM [2]	viability at 72 h, 100 µM [2]	TRP-2 mRNA/β-actin mRNA ([3]; 30 µM)	TRP-2 mRNA/β-actin mRNA ([3]; 100 µM)	Residual ratio in aqueous solution [4]	expression of tyrosinase protein (in words) [5]	Inhibition (%) of mushroom tyrosinase ([6]; Substrate: L-DOPA, 30 µM)	Inhibition (%) of mushroom tyrosinase ([6]; Substrate: L-DOPA, 100 µM)	Inhibition (%) of mushroom tyrosinase ([6]; Substrate: L-Tyrosine, 30 µM)	Inhibition (%) of mushroom tyrosinase ([6]; Substrate: L-Tyrosine, 100 µM)	TRP-1 mRNA/β-actin mRNA ([7]; 30 µM)	Tyrosinase mRNA/β-actin mRNA ([10]; 30 µM)	inhibition at 1000 µM [1, 11]	also measured
CCCCCCOC1=C(OCC(O)CO)[C@@H]([C@@H](O)CO)OC1=O (stereo partly shown) [compound 6, 3-O-(2,3-dihydroxypropyl)-2-O-hexyl-AsA]	-1.8 ± 4.9%	5.6 ± 2%	26.2 ± 6%	53.1 ± 3.1%	81.4 µM	102%	96.1%	88.4%	77.1%	0.53 ± 0.18	0.70 ± 0.06	85%	suppressed tyrosinase protein expression in a concentration-dependent manner	−1.5 ± 1.5%	−1.0 ± 0.7%	−1.5 ± 6.7%	0.9 ± 1.4%	0.48 ± 0.15	0.60 ± 0.07		activity on mammalian tyrosinase (in words) [8]: did not show activity; tyrosinase activity in cultured cells (in words) [9]: decreased tyrosinase activity in cultured cells
O=C1O[C@H]([C@@H](O)CO)C(O)=C1O [AsA, L-ascorbic acid]					> 3000 µM							9%								-17.4 ± 4%	inhibition at 3000 µM [1, 11]: 3.8 ± 4.7%; viability at 72 h, 1000 µM [2]: 104%; viability at 72 h, 3000 µM [2]: 89.2%
CCCCCCCCCCCCCCOC1=C(OCC(O)CO)C(=O)O[C@@H]1[C@@H](O)CO (stereo partly shown) [compound 28, 2-O-(2,3-dihydroxypropyl)-3-O-tetradecyl-AsA]	32.8 ± 7.2%	75.7 ± 3.9%	95.9 ± 8.4%	95.2 ± 20.7%	5 µM	85.1%	62.6%	23%	18.1%					−8.1 ± 5.2%		−8.4 ± 1.0%					potency relative to arbutin (melanogenesis inhibition) ([1]; ratio of IC50 values vs arbutin): more than 166 fold; TRP-2 mRNA/β-actin mRNA ([3]; 3 µM): 0.43 ± 0.11; Inhibition (%) of mushroom tyrosinase ([6]; Substrate: L-DOPA, 10 µM): −5.7 ± 9.5%; Inhibition (%) of mushroom tyrosinase ([6]; Substrate: L-Tyrosine, 10 µM): −4.4 ± 4.6%; TRP-1 mRNA/β-actin mRNA ([7]; 3 µM): 0.88 ± 0.20; TRP-1 mRNA/β-actin mRNA ([7]; 10 µM): 0.83 ± 0.27; Tyrosinase mRNA/β-actin mRNA ([10]; 3 µM): 0.54 ± 0.03
CCCCCCOC1=C(OCC(O)CO)C(=O)O[C@@H]1[C@@H](O)CO (stereo partly shown) [compound 20, 2-O-(2,3-dihydroxypropyl)-3-O-hexyl-AsA]				43.5 ± 2.6%	117 µM				95.3%	1.07 ± 0.30	0.88 ± 0.25	82%	suppressed tyrosinase protein expression in a concentration-dependent manner	−5.7 ± 5.1%	−2.4 ± 4.2%	1.4 ± 4.7%	−6.1 ± 0.6%	0.67 ± 0.12	0.72 ± 0.10	94.9 ± 1.5%	inhibition at 300 µM ([1]; Mus musculus, 300 µM, theophylline-stimulated B16 4A5 cells, 72 h): 77 ± 2.1%; inhibition at 3000 µM [1, 11]: 80.9 ± 4.1%; viability at 72 h, 300 µM ([2]; 300 µM): 83.9%; viability at 72 h, 1000 µM [2]: 60.8%; viability at 72 h, 3000 µM [2]: 44.7%
